The assay concerns Plasmodium berghei. The experiment in a line: Luciferase/luciferin-expressing antifolate-resistant parasites were used to infect a culture of HepG2 cells that were pre-incubated with compounds. Infected hepatocytes emit light due to the luciferase reaction. Assay results are presented as the percent inhibition of light emission compared to control. […]. To be noted: sporozoite; for IC90: read-out: LUCIFERASE INFECTION ASSAY - IC90. The assay is classed as functional.

[1] abbreviates: read-out: LUCIFERASE INFECTION ASSAY - IC50.

Broadly, the IC50 is the concentration that inhibits the measured activity by half. As usually defined, the IC90 is the concentration needed for an effect of 90%. As to `Cc1nc(NCCCCCc2n[nH]c(N)c2C#N)c2c(-c3ccccc3)csc2n1`, the IC90 stood at 7.48 µM. Besides, the IC50 (HEPG2TOX_HILL_SLOPE 1.31, HEPG2TOX_R_SQUARED 0.867, PBLUC_HILL_SLOPE 3.24, PBLUC_R_SQUARED 0.486, read-out: LUCIFERASE INFECTION ASSAY - IC50) is 3.79 µM. Consider `Cc1ccccc1-n1c(SCC(=O)Nc2sc3c(c2C(N)=O)CCC3)nc2ccccc2c1=O`, for which the IC90 is greater than 10 µM. Besides, the IC50 (HEPG2TOX_HILL_SLOPE 1.4, HEPG2TOX_R_SQUARED 0.675, read-out: LUCIFERASE INFECTION ASSAY - IC50) is greater than 10 µM.

Take `O=[N+]([O-])c1ccc2nc3c(c(-c4ccccc4)c2c1)CSc1ccccc1-3`: the IC90 was greater than 10 µM. Also, under setting [1], the IC50 was greater than 10 µM.

In the case of `Cc1nc2cc3c(cc2n1CC(=O)N1CCN(c2ccccc2)CC1)OCCO3`, the IC90 was greater than 10 µM. Also, the IC50 under setting [1] is greater than 10 µM. For `COC(=O)c1cc(C#N)c(Sc2ncc([N+](=O)[O-])s2)nc1C(OC)OC`, the IC90 is greater than 8.32 µM. The IC50 (FFLUC_HILL_SLOPE 0.469, FFLUC_R_SQUARED 0.297, HEPG2TOX_HILL_SLOPE 12.3, HEPG2TOX_R_SQUARED 0.829, PBLUC_HILL_SLOPE 2.84, PBLUC_R_SQUARED 0.141, read-out: LUCIFERASE INFECTION ASSAY - IC50) is greater than 8.32 µM. Consider `c1cc2[nH]c(-c3ccsc3)cc2c(Nc2ccc(N3CCOCC3)cc2)n1`, for which the IC90 was greater than 10 µM. Under “PBLUC_HILL_SLOPE 2.04, PBLUC_R_SQUARED 0.351, read-out: LUCIFERASE INFECTION ASSAY - IC50”, the 50% inhibitory concentration (IC50) stood at 6.37 µM.

For `CC(C)(C)c1cc(C(=O)NNC(=O)Nc2cccc(C(F)(F)F)c2)n(Cc2ccccc2)n1`, the IC90 is greater than 7.18 µM. Moreover, under setting [1], the IC50 was greater than 7.18 µM. In the case of `S=C(N/N=C\c1cccc2ccccc12)Nc1cccc(Cl)c1Cl`, the IC90 was greater than 8.82 µM. Under setting [1], the IC50 is greater than 8.82 µM. On to `Cc1nn(Cc2nnc(-c3ccco3)o2)c(C)c1S(=O)(=O)N1CCCCC1`, for which the 90% effect concentration (IC90) was greater than 10 µM. Moreover, the IC50 under setting [1] was greater than 10 µM. With `CN1CCCN(C(=O)C2CCN(c3oc(-c4ccco4)nc3C#N)CC2)c2nc3ccccc3nc21`, the IC90 amounted to 4.67 µM. For the same compound, the IC50 (PBLUC_HILL_SLOPE 11.5, PBLUC_R_SQUARED 0.327, read-out: LUCIFERASE INFECTION ASSAY - IC50) worked out at 3.86 µM. On to `COc1ccc2c(c1)CCCN2Cc1nn2c(=O)cc(C)nc2s1`, for which the IC90 is greater than 10 µM. Moreover, the IC50 under setting [1] was greater than 10 µM. Regarding `COc1ccccc1C1=NOC(=C2Sc3ccccc3C2=O)N1`, the IC90 stood at 4.54 µM. Besides, the IC50 (PBLUC_HILL_SLOPE 8.91, PBLUC_R_SQUARED 0.334, read-out: LUCIFERASE INFECTION ASSAY - IC50) came to 3.55 µM. `COc1ccc2[nH]cc(CCNC(=O)Nc3ccc(Cl)c(Cl)c3)c2c1`: the IC90 is greater than 8.72 µM. In addition, the IC50 under setting [1] is greater than 8.72 µM.

Turning to `Cc1cc([N+](=O)[O-])cc(S(=O)(=O)N(C)Cc2ccc(C(=O)NC3CC3)cc2)c1C`, the IC90 amounted to 6.84 µM. Besides, the IC50 (FFLUC_HILL_SLOPE 30.1, FFLUC_R_SQUARED 0.449, PBLUC_HILL_SLOPE 4.67, PBLUC_R_SQUARED 0.152, read-out: LUCIFERASE INFECTION ASSAY - IC50) was found to be 4.27 µM.

For `CC1CCCC(C)N1CCC(=O)NNC(=O)c1cc(-c2ccc(Cl)cc2)nc2ccccc12` (stereo unspecified), the IC90 is greater than 10 µM. For the same compound, under setting [1], the IC50 was determined as 7.66 µM. Regarding `Clc1ccc(N/N=C/c2sccc2Oc2ccccc2)cc1`, the IC90 is greater than 10 µM. Besides, under setting [1], the IC50 is greater than 10 µM.

With `Cc1ccc(S(=O)(=O)NC(=O)c2ccc(Cl)nc2Cl)cc1`, the IC90 is greater than 10 µM. Further, under setting [1], the IC50 is greater than 10 µM. As for `Cc1ncsc1CCOC(=O)c1cc(Cl)c2c(c1)OCCO2`, the IC90 was greater than 10 µM. Further, under setting [1], the IC50 is greater than 10 µM. Consider `Cc1cc(NCc2cccc(C(F)(F)F)c2)nc(N)n1`, for which the IC90 is greater than 10 µM. Where the note is “HEPG2TOX_HILL_SLOPE 5.66, HEPG2TOX_R_SQUARED 0.531, PBLUC_HILL_SLOPE 2.77, PBLUC_R_SQUARED 0.624, read-out: LUCIFERASE INFECTION ASSAY - IC50”, the IC50 worked out at 5.15 µM. As to `Cc1cc(/C=C/c2cc(C(=O)O)c3ccccc3n2)cc(C)c1OC(F)F`, the IC90 is 3.87 µM. For the same compound, where the note is “HEPG2TOX_HILL_SLOPE 0.464, HEPG2TOX_R_SQUARED 0.656, PBLUC_HILL_SLOPE 13.4, PBLUC_R_SQUARED 0.624, read-out: LUCIFERASE INFECTION ASSAY - IC50”, the IC50 worked out at 3.28 µM. As to `COc1cc(-c2cnc3ccc(Cc4ccc(F)cc4)nn23)cc(OC)c1OC`, the IC90 is greater than 10 µM. Further, the IC50 under setting [1] was 6.26 µM. For `O=C(/C=C/c1ccccc1)Nc1ccc(C23CC4CC(CC(O)(C4)C2)C3)cc1`, the IC90 stood at 9.39 µM. Also, the IC50 (PBLUC_HILL_SLOPE 1.46, PBLUC_R_SQUARED 0.646, read-out: LUCIFERASE INFECTION ASSAY - IC50) is 2.09 µM.

Consider `COc1ccc(OCC(N)=NC(=S)Nc2cccc(C(F)(F)F)c2)cc1`, for which the IC90 was greater than 8.61 µM. In addition, where the note is “PBLUC_HILL_SLOPE 17.2, PBLUC_R_SQUARED 0.0649, read-out: LUCIFERASE INFECTION ASSAY - IC50”, the IC50 was greater than 8.61 µM. With `COCCn1c(SC(C)C(=O)NCC2CCCO2)nc2scc(-c3ccc(F)cc3)c2c1=O` (stereo unspecified), the IC90 is greater than 10 µM. Moreover, the IC50 under setting [1] was greater than 10 µM.

Regarding `Nc1c(C(=O)Nc2cccc(Cl)c2)sc2nc3c(c(-c4cccnc4)c12)CCC3`, the IC90 is greater than 7.84 µM. Besides, under “FFLUC_HILL_SLOPE 1.24, FFLUC_R_SQUARED 0.605, PBLUC_HILL_SLOPE 2.61, PBLUC_R_SQUARED 0.023, read-out: LUCIFERASE INFECTION ASSAY - IC50”, the IC50 was greater than 7.84 µM. Take `C=c1onc(-c2c(F)cccc2Cl)c1=C1NC(c2ccccn2)=NO1`: the IC90 was greater than 9.25 µM. Further, the IC50 (PBLUC_HILL_SLOPE 3.2, PBLUC_R_SQUARED 0.36, read-out: LUCIFERASE INFECTION ASSAY - IC50) was 6.04 µM. On to `COc1cc(C)c2c(c1)C=CC1C2CCC2(C)C(O)CCC12` (stereo unspecified), for which the IC90 was greater than 11.1 µM. The IC50 under setting [1] was greater than 11.1 µM. For the compound `Cc1ccc2[nH]c(-c3ccccc3O)nc2c1`, the IC90 is 1.78 µM. Also, for the setting “HEPG2TOX_HILL_SLOPE 1.55, HEPG2TOX_R_SQUARED 0.794, PBLUC_HILL_SLOPE 15.6, PBLUC_R_SQUARED 0.425, read-out: LUCIFERASE INFECTION ASSAY - IC50”, the IC50 turned out to be 1.54 µM.

`COc1ccc(NC(=O)c2cccc3c[nH]nc23)cc1Cc1ccccc1`: the IC90 was 9.56 µM. Besides, the IC50 (PBLUC_HILL_SLOPE 1.42, PBLUC_R_SQUARED 0.679, read-out: LUCIFERASE INFECTION ASSAY - IC50) was found to be 2.02 µM. Take `Cc1c(C2=CCCCC2)c2ccccn2c1C(=O)c1cc2c(C)nn(-c3ccccc3)c2s1`: the IC90 is greater than 10 µM. For the same compound, under setting [1], the IC50 is greater than 10 µM. As to `NC(=O)NC(CC(=O)Nc1ccc2c(c1)-c1ccccc1C2)c1ccccc1` (stereo unspecified), the IC90 was greater than 10 µM. Moreover, where the note is “HEPG2TOX_HILL_SLOPE 11.3, HEPG2TOX_R_SQUARED 0.75, PBLUC_HILL_SLOPE 2.98, PBLUC_R_SQUARED 0.106, read-out: LUCIFERASE INFECTION ASSAY - IC50”, the 50% inhibitory concentration (IC50) was determined as 6.7 µM. Consider `Cc1ccc(CNC(=O)CN2CCCN(Cc3ccc(Cl)cc3)CC2)cc1F`, for which the IC90 was greater than 10 µM. For the same compound, for the setting “HEPG2TOX_HILL_SLOPE 2.47, HEPG2TOX_R_SQUARED 0.19, PBLUC_HILL_SLOPE 1.42, PBLUC_R_SQUARED 0.29, read-out: LUCIFERASE INFECTION ASSAY - IC50”, the IC50 amounted to 4.84 µM. As for `Clc1sc2ccccc2c1-c1nnc(SCc2nc3ccccn3c2Br)n1-c1ccccc1`, the IC90 is greater than 10 µM. Also, the IC50 (PBLUC_HILL_SLOPE 2.01, PBLUC_R_SQUARED 0.722, read-out: LUCIFERASE INFECTION ASSAY - IC50) was 6.1 µM. On to `NC(=O)C1CCN(c2nc(/C=C/c3ccccc3)nc3sc4c(c23)CCCC4)CC1`, for which the IC90 is greater than 10 µM. Also, under “FFLUC_HILL_SLOPE 8.41, FFLUC_R_SQUARED 0.401, PBLUC_HILL_SLOPE 20.5, PBLUC_R_SQUARED 0.298, read-out: LUCIFERASE INFECTION ASSAY - IC50”, the IC50 stood at 9.42 µM. Turning to `C=CCN(c1ccccc1)S(=O)(=O)c1cccc(C(=O)Nc2ccnn2C(C)C2CC2)c1` (stereo unspecified), the IC90 is greater than 10 µM. Moreover, the IC50 (HEPG2TOX_HILL_SLOPE 0.485, HEPG2TOX_R_SQUARED 0.701, PBLUC_HILL_SLOPE 1.26, PBLUC_R_SQUARED 0.254, read-out: LUCIFERASE INFECTION ASSAY - IC50) is greater than 10 µM. For the compound `O=C(Nc1ccccc1C(=O)Nc1nnc(C(F)(F)F)s1)c1ccccc1Cl`, the IC90 was found to be 2.71 µM. Also, the IC50 (HEPG2TOX_HILL_SLOPE 2.99, HEPG2TOX_R_SQUARED 0.762, PBLUC_HILL_SLOPE 9.09, PBLUC_R_SQUARED 0.594, read-out: LUCIFERASE INFECTION ASSAY - IC50) was 2.13 µM. With `Oc1ccc(-c2cnc3cnc(-c4ccccc4Cl)cn23)cc1`, the IC90 turned out to be 4.1 µM. Moreover, the IC50 (HEPG2TOX_HILL_SLOPE 4.19, HEPG2TOX_R_SQUARED 0.981, PBLUC_HILL_SLOPE 3.43, PBLUC_R_SQUARED 0.853, read-out: LUCIFERASE INFECTION ASSAY - IC50) came to 2.16 µM. As for `COc1cccc(CC(=O)N2CCCC(C(=O)NCC3CC3)C2)c1` (stereo unspecified), the IC90 was greater than 10 µM. The IC50 under setting [1] was greater than 10 µM. With `CC1(C)C=Cc2cc(-c3noc(-c4ccccc4)n3)ccc2O1`, the IC90 amounted to 0.379 µM.

As for `Cn1ccc2cc(-c3cnc4cnc(-c5ccc(C(=O)NCCO)cc5)cn34)ccc21`, the IC90 turned out to be 7.65 µM. For the same compound, under setting [1], the IC50 worked out at 6.16 µM. Consider `O=C(c1ccc(N2CCCC2=O)cc1)N1CCN(C2CCS(=O)(=O)C2)CC1` (stereo unspecified), for which the IC90 was greater than 10 µM. The IC50 under setting [1] was greater than 10 µM.

The record behind these values is ChEMBL document CHEMBL4483862, “Open-source discovery of chemical leads for next-generation chemoprotective antimalarials” (2018).
